Measurements published in patent publication US9827219B2, “Compositions and methods for lowering levels of high-sensitivity C-reactive protein (HS-CRP) in a subject” (priority 2012, dated 2017).

Experiments:
[1] = Safety and tolerability (adverse events), AAMI pilot study (Example 1); type: in vivo, human; conditions: for TEAE Probably Related to the study drug: one subject
Experimental: All randomized subjects that received at least 1 dose of study medication were included in the Safety Population.
Safety evaluations were based on the safety population. Safety and tolerability were assessed in terms of AEs, vital signs, 12-lead ECG, clinical laboratory data, medical history, and study drug compliance. Safety and tolerability data were presented by treatment group.

[2] = test system: IL-6; assay: ANCHOR study, IL-6; type: in vivo, human; conditions: ANCHOR ITT, week 12
Experimental: A multi-center, placebo-controlled, randomized, double-blind, 12-week study was performed to evaluate the efficacy and safety of >96% E-EPA in patients with fasting triglyceride levels ≧200 mg/dl and <500 mg/dl despite statin therapy (the mean of two qualifying entry values needed to be ≧185 mg/dl and at least one of the values needs to be ≧200 mg/dl). The primary objective of the study was to determine the efficacy of >96% E-EPA 2 g daily and 4 g daily, compared to placebo, in lowering fasting TG levels in patients with high risk for cardiovascular disease and with fasting TG levels ≧200 mg/dL and <500 mg/dL, despite treatment to LDL-C goal on statin therapy.
The population for this study was men and women >18 years of age with a body mass index ≦45 kg/m^2 with fasting TG levels greater than or equal to 200 mg/dl and less than 500 mg/dl and on a stable does of statin therapy (with or without ezetimibe). The statin must have been atorvostatin, rosuvastatin or simvastatin. The dose of statin must have been stable for ≧4 weeks prior to the LDL-C/TG baseline qualifying measurement for randomization. The statin dose was optimal such that the patients are at their LDL-C goal at the LDL-C/TG baseline qualifying measurements. The same statin at the same dose was continued until the study ended.
Approximately 648 patients were randomized at approximately 80 centers in the U.S. The study was a 18- to 20-week, Phase 3, multi-center study consisting of 2 study periods: (1) A 6- to 8-week screening period that included a diet and lifestyle stabilization, a non-statin lipid-altering treatment washout, and an LDL-C and TG qualifying period and (2) A 12-week, double-blind, randomized, placebo-controlled treatment period.
After confirmation of qualifying fasting LDL-C and TG values, eligible patients entered a 12-week, randomized, double-blind treatment period. At Visit 4 (Week 0), patients were randomly assigned to 1 of the following treatment groups: • >96% E-EPA 2 g daily, • >96% E-EPA 4 g daily, or • Placebo.
Approximately 216 patients per treatment group were randomized in this study. Stratification was by type of statin (atorvastatin, rosuvastatin or simvastatin), the presence of diabetes, and gender. The lower-efficacy statin regimen included administration of 5-10 mg of simvastatin per day; the medium-efficacy statin regimens included administration of 5-10 mg rosuvastatin per day, 10-20 mg of atorvastatin per day, 20-40 mg of simvastatin per day, or 10-20 mg of simvastatin and 5-10 mg of ezetimibe per day; and the higher-efficacy statin regimens included administration of 20-40 mg of rosuvastatin per day, 40-80 mg of atorvastatin per day, 80 mg of simvastatin per day, or 40-80 mg of simvastatin and 5-10 mg of ezetimibe per day. […]

Structure (SMILES): CC/C=C\C/C=C\C/C=C\C/C=C\C/C=C\CCCC(=O)OCC [AMR101, all-cis eicosa-5,8,11,14,17-pentaenoic acid ethyl ester]
- Subjects with nausea Possibly Related to the study drug ([1]; 1 g cohort): two
- TEAE Probably Related to the study drug ([1]; 1 g): nausea
- Subjects with nausea Possibly Related to the study drug ([1]; 2 g cohort): one
- SAE reported ([1]; 2 g treatment group): One
- Subjects discontinued due to TEAEs ([1]; 2 g treatment group): 2 subjects
- Subjects with nausea Possibly Related to the study drug ([1]; 4 g cohort): two
- TEAE Probably Related to the study drug ([1]; 4 g): diarrhea
- Deaths during the study ([1]; all groups): no deaths
- TEAEs Definitely Related to the study drug ([1]; all groups): No TEAEs were Definitely Related
- Treatment emergent AEs (TEAEs) reported ([1]; ethyl-EPA treatment groups (1, 2, 4 g), 6 weeks, placebo groups 34 events): 105 events
- Relatedness of the SAE (worsening epigastric chest pain) ([1]; one subject receiving 2 g): unrelated to the study drug
- Severity and relatedness of most TEAEs ([1]; whole study): mild in severity and unrelated to study drug
- IL-6 change from baseline (median) ([2]; 2 g/day): 6.9%
- IL-6 end-of-treatment value (median) ([2]; 2 g/day): 2.7 pg/mL
- IL-6 change from baseline (median) ([2]; 4 g/day): 3.1%
- IL-6 end-of-treatment value (median) ([2]; 4 g/day): 2.6 pg/mL
